In patent US10538561B2, “Peptide for treating inflammatory diseases” (priority 2015, dated 2020):
Marks after values point to notes of the source that are not given here.

Key:
[1] = test system: TSLP; experiment: LPS+PMA stimulated TSLP secretion in HaCaT; format: cell-based, Human; conditions: for TSLP % decrease with respect to LPS + PMA / TSLP Conc (pg/ml): HaCaT + LPS + PMA, 24 h
Procedure: Effect on pro-inflammatory cytokines against TNF-α/LPS+PMA stimulation: TNF-α; IFN-γ; TARC; TSLP; IL-6; IL-8: Cell lines: Human keratinocytes (HaCaT); test item (TI); IS181; experimental steps: pre-treatment of cells with TI for 2 hours; stimulation with TNF-α: 20 ng/ml; stimulation with LPS+PMA-10 μg/ml LPS+40 ng/ml PMA; supernatant collection for cytokine analysis after 24 hours; concentration range: 0.1 μg/ml-100 μg/ml (duplicate wells); cytokines: TNF-α; IFN-γ; TARC; TSLP; IL-6; IL-8. Method of estimating cytokines: ELISA; positive control: dexamethasone.
Cell line: HaCaT (Human Keratinocytes); TI Treatment regimen: Pretreatment for 2 h; TI Concentration range: 0.1 μg/ml-100 μg/ml (duplicate wells); TNF-α stimulation: 20 ng/ml; LPS+PMA stimulation: 10 μg/ml LPS+40 ng/ml PMA; Time point for supernatants collection: 24 h; Method of estimation: ELISA; Positive control: Dexamethasone

[2] = test system: IL-23; experiment: IL-23 secretion in LPS+IFN-γ stimulated THP-1; format: cell-based, Human; conditions: THP-1 + LPS + IFN-γ, 24 h
Procedure: Cell lines: Human monocytic cell line (THP-1); test item: IS181: treatment regimen; single addition—24 hours; concentration range: 10 μg/ml-5000 μg/ml. A) Identification of non-cytotoxic concentrations: THP-1 cells were treated with IS181 for 24 hours; effect on cell viability was assessed by MTT assay; concentrations leading to >75% cell viability were selected for IL-23 assay. […] Positive control: curcumin. […] Since supernatants corresponding to 5 concentrations were to be tested for […], we also tested 1 mg/ml.

[3] = biological target: T1, JAK3 (Homo sapiens, UniProt P52333); experiment: Biochemical kinase assay JAK3
T1 sequence (P52333 1-1124): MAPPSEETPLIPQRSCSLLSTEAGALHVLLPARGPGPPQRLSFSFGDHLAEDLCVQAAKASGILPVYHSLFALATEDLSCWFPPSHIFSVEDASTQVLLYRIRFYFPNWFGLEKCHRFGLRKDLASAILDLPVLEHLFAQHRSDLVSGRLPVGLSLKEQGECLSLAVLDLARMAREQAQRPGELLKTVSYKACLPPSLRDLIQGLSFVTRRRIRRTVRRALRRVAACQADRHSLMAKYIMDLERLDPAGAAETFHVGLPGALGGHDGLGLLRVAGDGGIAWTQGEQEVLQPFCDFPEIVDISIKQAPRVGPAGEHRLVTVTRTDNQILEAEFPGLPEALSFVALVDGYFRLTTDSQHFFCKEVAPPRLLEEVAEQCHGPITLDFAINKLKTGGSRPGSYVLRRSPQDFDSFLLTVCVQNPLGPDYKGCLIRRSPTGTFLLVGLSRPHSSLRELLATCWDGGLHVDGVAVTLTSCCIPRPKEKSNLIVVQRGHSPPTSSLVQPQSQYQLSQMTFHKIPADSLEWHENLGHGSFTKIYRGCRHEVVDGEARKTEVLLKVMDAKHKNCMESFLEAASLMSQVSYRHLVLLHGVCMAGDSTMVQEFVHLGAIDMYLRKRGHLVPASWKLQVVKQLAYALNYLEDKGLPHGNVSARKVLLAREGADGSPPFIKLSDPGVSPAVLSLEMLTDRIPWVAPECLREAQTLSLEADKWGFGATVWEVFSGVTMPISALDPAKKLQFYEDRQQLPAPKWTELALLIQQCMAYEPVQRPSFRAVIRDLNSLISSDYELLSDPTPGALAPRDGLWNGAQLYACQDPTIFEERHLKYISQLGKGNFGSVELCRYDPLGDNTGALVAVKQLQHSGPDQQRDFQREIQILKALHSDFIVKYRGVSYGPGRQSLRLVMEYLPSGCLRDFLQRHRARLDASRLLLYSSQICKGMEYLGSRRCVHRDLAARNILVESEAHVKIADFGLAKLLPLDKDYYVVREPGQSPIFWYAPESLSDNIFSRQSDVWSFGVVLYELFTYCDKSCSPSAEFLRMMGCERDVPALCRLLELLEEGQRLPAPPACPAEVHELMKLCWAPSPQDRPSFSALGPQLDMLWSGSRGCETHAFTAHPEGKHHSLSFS
Procedure: (§1) Test system: cell free assays; test items: IS181; concentrations tested: 1 ng/ml-5000 μg/ml; Kinases: a) Cell free assays: EGFR (ErbB1); FLT1 (VEGFR1); JAK1; JAK3 MAP2K1 (MEK1); PDGFRA (PDGFR alpha); PRKCA (PKC alpha); b) cell based assay: JAK-STAT.

[4] = biological target: MAP2K1 (MEK1) (Homo sapiens, UniProt Q02750); experiment: Biochemical kinase assay MAP2K1
Procedure: as §1

[5] = Solution stability in diluents; format: physicochemical; conditions: 24 hours
Procedure: The solution stability of peptide IS 181 was performed in four different diluents at three different temperatures for 24 hours. Four different pre-formulations of concentration 10 mg/ml were prepared and formulation assay was performed at initial and […] at room temperature.

Sequence of MAP2K1 (MEK1) (Q02750 whole entry): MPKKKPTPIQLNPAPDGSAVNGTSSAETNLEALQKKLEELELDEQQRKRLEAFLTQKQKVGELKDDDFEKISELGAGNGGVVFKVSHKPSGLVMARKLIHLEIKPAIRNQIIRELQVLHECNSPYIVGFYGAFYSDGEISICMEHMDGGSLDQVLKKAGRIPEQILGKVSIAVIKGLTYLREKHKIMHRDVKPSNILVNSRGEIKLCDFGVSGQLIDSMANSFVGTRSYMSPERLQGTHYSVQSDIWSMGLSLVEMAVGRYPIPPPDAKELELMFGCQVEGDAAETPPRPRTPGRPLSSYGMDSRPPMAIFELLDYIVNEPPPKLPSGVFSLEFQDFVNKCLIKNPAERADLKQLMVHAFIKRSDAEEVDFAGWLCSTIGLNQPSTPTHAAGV

H-WVQRVVEKFLK-OH [IS181, H-Trp-Val-Gln-Arg-Val-Val-Glu-Lys-Phe-Leu-Lys-OH]
secretion of TSLP inhibited as compared to LPS+PMA stimulated cells ([1]; 0.1 μg/ml-100 μg/ml): 46.4%-53.6%
TSLP inhibition ([1]; HaCaT): good extent of TSLP and IL-8 inhibition
TSLP % decrease with respect to LPS + PMA ([1]; 0.1 μg/ml): 49.4%
TSLP Conc (pg/ml) ([1]; 0.1 μg/ml): 62.9*** pg/ml
TSLP % decrease with respect to LPS + PMA ([1]; 1 μg/ml): 47.9%
TSLP Conc (pg/ml) ([1]; 1 μg/ml): 64.7*** pg/ml
TSLP % decrease with respect to LPS + PMA ([1]; 5 μg/ml): 46.4%
TSLP Conc (pg/ml) ([1]; 5 μg/ml): 66.6*** pg/ml
TSLP % decrease with respect to LPS + PMA ([1]; 10 μg/ml): 53.6%
TSLP Conc (pg/ml) ([1]; 10 μg/ml): 57.6*** pg/ml
TSLP % decrease with respect to LPS + PMA ([1]; 100 μg/ml): 49.8%
TSLP Conc (pg/ml) ([1]; 100 μg/ml): 62.4*** pg/ml
% Inhibition of IL-23 wrt Control (LPS + IFN-γ) ([2]; 10 μg/ml): 69.8%
Conc. of IL-23 ([2]; 10 μg/ml): 25.4 pg/mL
% Inhibition of IL-23 wrt Control (LPS + IFN-γ) ([2]; 50 μg/ml): 66.3%
Conc. of IL-23 ([2]; 50 μg/ml): 25.3 pg/mL
% Inhibition of IL-23 wrt Control (LPS + IFN-γ) ([2]; 100 μg/ml): 72.3%
Conc. of IL-23 ([2]; 100 μg/ml): 23.3 pg/mL
% Inhibition of IL-23 wrt Control (LPS + IFN-γ) ([2]; 500 μg/ml): −10.9%
Conc. of IL-23 ([2]; 500 μg/ml): 93.3 pg/mL
% Inhibition of IL-23 wrt Control (LPS + IFN-γ) ([2]; 1000 μg/ml): 39.6%
Conc. of IL-23 ([2]; 1000 μg/ml): 50.6 pg/mL
inhibition at 10 µg/mL ([3]; 10 μg/ml): 13%
inhibition at 50 µg/mL ([3]; cell free, 50 μg/ml): 13%
inhibition at 100 µg/mL ([3]; cell free, 100 μg/ml): -24%
inhibition at 250 µg/mL ([3]; cell free, 250 μg/ml): -72%
inhibition at 500 µg/mL ([3]; cell free, 500 μg/ml): -142%
inhibition at 1000 µg/mL ([3]; cell free, 1000 μg/ml): -198%
inhibition of MAP2K1 (MEK1) ([4]; 10 μg/ml-5000 μg/ml): 23%-49%
inhibition at 50 µg/mL ([4]; cell free, 50 μg/ml): 49%
inhibition at 100 µg/mL ([4]; cell free, 100 μg/ml): 26%
inhibition at 250 µg/mL ([4]; cell free, 250 μg/ml): 30%
inhibition at 500 µg/mL ([4]; cell free, 500 μg/ml): 23%
inhibition at 1000 µg/mL ([4]; cell free, 1000 μg/ml): 13%
inhibition at 2000 µg/mL ([4]; cell free, 2000 μg/ml): -16%
inhibition at 5000 µg/mL ([4]; cell free, 5000 μg/ml): -81%
% Stability ([5]; 0.9% NaCl solution, 2-8° C.): 93.64%
% Stability ([5]; 0.9% NaCl solution, 37° C.): 104.94%
% Stability ([5]; 0.9% NaCl solution, Room Temperature): 101.84%
% Stability ([5]; Phosphate buffer pH 5.0, 2-8° C.): 96.53%
% Stability ([5]; Phosphate buffer pH 5.0, 37° C.): 104.05%
% Stability ([5]; Phosphate buffer pH 5.0, Room Temperature): 102.20%
% Stability ([5]; Phosphate buffer pH 7.4, 2-8° C.): 97.99%
% Stability ([5]; Phosphate buffer pH 7.4, 37° C.): 107.22%
% Stability ([5]; Phosphate buffer pH 7.4, Room Temperature): 102.41%
% Stability ([5]; Water, 2-8° C.): 94.66%
% Stability ([5]; Water, 37° C.): 98.57%
% Stability ([5]; Water, Room Temperature): 93.99%
